Source: patent US12077503B2, “Substituted cyclic amides and their use as herbicides” (FMC CORPORATION, priority 2015, dated 2024)
Like-named read-outs stand apart in the source and are kept apart here.

Tests used:
Assay type in all cases: in vivo
[1] = system: Kochia (Kochia scoparia); assay: Test A preemergence; conditions: Bassia scoparia, pre-emergence, 240 h; for pest or weed control at 125 g/ha: 125 g ai/ha, visual rating after approx. 10 d, 0 to 100 scale where 0 is no effect and 100 is complete control; for pest or weed control at 500 g/ha: 500 g ai/ha
Outline: (§1)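 Preemergence directed soil spray on seeded pots, or postemergence application to plants 2–10 cm, one- to two-leaf. Solvent mixture non-phytotoxic, with surfactant. Scored ~10 d later, visually, 0–100 vs untreated.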

[2] = system: barnyardgrass (Echinochloa crus-galli); assay: Test A preemergence; conditions: Echinochloa crus-galli, pre-emergence, 240 h; for pest or weed control at 125 g/ha: 125 g ai/ha, visual rating after approx. 10 d, 0 to 100 scale where 0 is no effect and 100 is complete control; for pest or weed control at 500 g/ha: 500 g ai/ha
Outline: as §1

[3] = system: giant foxtail (Setaria faberii); assay: Test A preemergence; conditions: Setaria faberi, pre-emergence, 240 h; for pest or weed control at 125 g/ha: 125 g ai/ha, visual rating after approx. 10 d, 0 to 100 scale where 0 is no effect and 100 is complete control; for pest or weed control at 500 g/ha: 500 g ai/ha
Outline: as §1

[4] = system: pigweed (Amaranthus retroflexus); assay: Test A preemergence; conditions: Amaranthus retroflexus, pre-emergence, 240 h; for pest or weed control at 125 g/ha: 125 g ai/ha, visual rating after approx. 10 d, 0 to 100 scale where 0 is no effect and 100 is complete control; for pest or weed control at 500 g/ha: 500 g ai/ha
[5] = system: ragweed (common ragweed, Ambrosia elatior); assay: Test A preemergence; conditions: Ambrosia artemisiifolia, pre-emergence, 240 h; for pest or weed control at 125 g/ha: 125 g ai/ha, visual rating after approx. 10 d, 0 to 100 scale where 0 is no effect and 100 is complete control; for pest or weed control at 500 g/ha: 500 g ai/ha
Outline: as §1

[6] = system: ryegrass, Italian (Italian ryegrass, Lolium multiflorum); assay: Test A preemergence; conditions: Lolium multiflorum, pre-emergence, 240 h; for pest or weed control at 125 g/ha: 125 g ai/ha, preemergence, visual rating after approx. 10 d, 0 to 100 scale where 0 is no effect and 100 is complete control, read-out: Plant response rating, Ryegrass, Italian
Outline: as §1

[7] = system: Kochia (Kochia scoparia); assay: Test A postemergence; conditions: Bassia scoparia, post-emergence, 240 h, 125 g ai/ha, postemergence; visual injury after approximately 10 d; 0 to 100 scale (0 no effect, 100 complete control); read-out: Plant response rating, Kochia
Outline: as §1

[8] = system: blackgrass (Alopecurus myosuroides); assay: Test A postemergence; conditions: Alopecurus myosuroides, post-emergence, 240 h, 125 g ai/ha, postemergence; visual injury after approximately 10 d; 0 to 100 scale (0 no effect, 100 complete control); read-out: Plant response rating, Blackgrass
Outline: as §1

[9] = system: ragweed (common ragweed, Ambrosia elatior); assay: Test A postemergence; conditions: Ambrosia artemisiifolia, post-emergence, 240 h, 125 g ai/ha, postemergence; visual injury after approximately 10 d; 0 to 100 scale (0 no effect, 100 complete control); read-out: Plant response rating, Ragweed
Outline: as §1

[10] = system: ryegrass, Italian (Italian ryegrass, Lolium multiflorum); assay: Test A postemergence; conditions: Lolium multiflorum, post-emergence, 240 h, 125 g ai/ha, postemergence; visual injury after approximately 10 d; 0 to 100 scale (0 no effect, 100 complete control); read-out: Plant response rating, Ryegrass, Italian
Outline: as §1

[11] = system: wheat (Triticum aestivum); assay: Test A postemergence; conditions: Triticum aestivum, post-emergence, 240 h, 125 g ai/ha, postemergence; visual injury after approximately 10 d; 0 to 100 scale (0 no effect, 100 complete control); read-out: Plant response rating, Wheat
Outline: as §1

[12] = system: barnyardgrass (Echinochloa crus-galli); assay: Test B flooded paddy test; conditions: Echinochloa crus-galli, Flood, 250 g ai/ha; scale of 0 to 100 where 0 is no effect and 100 is complete control; read-out: Barnyardgrass plant response rating
Outline: (§2)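 Evaluation by eye, against controls, occurred 13–15 d post-treatment in a greenhouse, using a 0 (no effect) to 100 (complete control) scale. Application was into the paddy water, 3 cm deep over the soil, on 2-leaf plants.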

[13] = system: ducksalad (Heteranthera limosa); assay: Test B flooded paddy test; conditions: Heteranthera limosa, Flood, 250 g ai/ha; scale of 0 to 100 where 0 is no effect and 100 is complete control; read-out: Ducksalad plant response rating
Outline: as §2

[14] = system: rice (Oryra sativa); assay: Test B flooded paddy test; conditions: Oryza sativa, Flood, 250 g ai/ha; scale of 0 to 100 where 0 is no effect and 100 is complete control; read-out: Rice plant response rating
Outline: as §2

[15] = system: sedge, umbrella (small-flower umbrella sedge, Cyperus difformis); assay: Test B flooded paddy test; conditions: Cyperus difformis, Flood, 250 g ai/ha; scale of 0 to 100 where 0 is no effect and 100 is complete control; read-out: Sedge, Umbrella plant response rating
Outline: as §2

[16] = preemergence, read-out: Plant response rating, Kochia
[17] = preemergence, read-out: Plant response rating, Barnyardgrass
[18] = preemergence, read-out: Plant response rating, Foxtail, Giant
[19] = preemergence, read-out: Plant response rating, Pigweed
[20] = preemergence, read-out: Plant response rating, Ragweed

O=C1NC[C@H](c2ccc3c(c2)OCO3)[C@H]1C(=O)Nc1ccccc1F [Compound 767]
pest or weed control at 125 g/ha [1, 16]: 0%
pest or weed control at 500 g/ha ([1]; preemergence, 0 to 100 scale, 0 = no effect, 100 = complete control, read-out: Plant response rating, Kochia): 0%
pest or weed control at 125 g/ha [2, 17]: 90%
pest or weed control at 500 g/ha ([2]; preemergence, 0 to 100 scale, 0 = no effect, 100 = complete control, read-out: Plant response rating, Barnyardgrass): 90%
pest or weed control at 125 g/ha [3, 18]: 0%
pest or weed control at 500 g/ha ([3]; preemergence, 0 to 100 scale, 0 = no effect, 100 = complete control, read-out: Plant response rating, Foxtail, Giant): 90%
pest or weed control at 125 g/ha [4, 19]: 0%
pest or weed control at 500 g/ha ([4]; preemergence, 0 to 100 scale, 0 = no effect, 100 = complete control, read-out: Plant response rating, Pigweed): 0%
pest or weed control at 125 g/ha [5, 20]: 0%
pest or weed control at 500 g/ha ([5]; preemergence, 0 to 100 scale, 0 = no effect, 100 = complete control, read-out: Plant response rating, Ragweed): 0%
pest or weed control at 125 g/ha [6]: 0%
pest or weed control at 125 g/ha [7]: 0%
pest or weed control at 125 g/ha [8]: 0%
pest or weed control at 125 g/ha [9]: 0%
pest or weed control at 125 g/ha [10]: 0%
plant injury at 125 g/ha [11]: 0%
pest or weed control at 250 g/ha [12]: 0%
pest or weed control at 250 g/ha [13]: 100%
pest or weed control at 250 g/ha [14]: 0%
pest or weed control at 250 g/ha [15]: 0%

O=C1NC[C@H](c2ccc(OC(F)F)cc2)[C@H]1C(=O)Nc1ccccc1F [Compound 778]
pest or weed control at 125 g/ha [1, 16]: 80%
pest or weed control at 500 g/ha ([1]; Preemergence, visual injury vs untreated controls after approximately 10 d, read-out: Kochia plant response rating (0 to 100 scale where 0 is no effect and 100 is complete control)): 80%
pest or weed control at 125 g/ha [2, 17]: 70%
pest or weed control at 500 g/ha ([2]; Preemergence, visual injury vs untreated controls after approximately 10 d, read-out: Barnyardgrass plant response rating (0 to 100 scale where 0 is no effect and 100 is complete control)): 90%
pest or weed control at 125 g/ha [3, 18]: 90%
pest or weed control at 500 g/ha ([3]; Preemergence, visual injury vs untreated controls after approximately 10 d, read-out: Foxtail, Giant plant response rating (0 to 100 scale where 0 is no effect and 100 is complete control)): 90%
pest or weed control at 125 g/ha [4, 19]: 30%
pest or weed control at 500 g/ha ([4]; Preemergence, visual injury vs untreated controls after approximately 10 d, read-out: Pigweed plant response rating (0 to 100 scale where 0 is no effect and 100 is complete control)): 80%
pest or weed control at 125 g/ha [5, 20]: 40%
pest or weed control at 500 g/ha ([5]; Preemergence, visual injury vs untreated controls after approximately 10 d, read-out: Ragweed plant response rating (0 to 100 scale where 0 is no effect and 100 is complete control)): 60%
pest or weed control at 125 g/ha [6]: 0%
pest or weed control at 500 g/ha ([6]; 500 g ai/ha, Preemergence, visual injury vs untreated controls after approximately 10 d, read-out: Ryegrass, Italian plant response rating (0 to 100 scale where 0 is no effect and 100 is complete control)): 20%
pest or weed control at 125 g/ha [7]: 60%
pest or weed control at 125 g/ha [8]: 10%
pest or weed control at 125 g/ha [9]: 0%
pest or weed control at 125 g/ha [10]: 20%
plant injury at 125 g/ha [11]: 0%
pest or weed control at 250 g/ha [12]: 0%
pest or weed control at 250 g/ha [13]: 100%
pest or weed control at 250 g/ha [14]: 0%
pest or weed control at 250 g/ha [15]: 0%
